According to article PMC10941181 (2024):

Legend:
[1] = system: R2-Pu24T (G4 DNA) (DNA, G4) AGCACTCTAGCTCTATGAGGGTGGTGAGGGTGGGGAAGG; assay: 1H NMR imino shifts; conditions: K+, 10 mM potassium phosphate; pH 7.4, 298 K
[2] = system: Cy5-Pu24T G4 (DNA, G4) AGCACTCTAGCTCTATGAGGGTGGTGAGGGTGGGGAAGG; assay: microscale thermophoresis; conditions: 100 mM KCl, 10 mM potassium phosphate; pH 7.4, 0.05% Tween 20; 20 nM labelled DNA; GL 0.6 nM to 2.5 μM

binding [1]: yes
Kd [2]: > 0.2 µM
Compound: Cc1cc(N2CCNCC2)nc(Nc2nc(C)c3ccc4c(c3n2)CCC4)n1
